# Data as given in US20080032889A1, “6-(2-Fluorophenyl)-Triazolopyrimidines, Method For The Production Thereof, Use Thereof For Controlling Harmful Fungi, And Agents Containing The Same” (BASF AKTIENGESELLSCHAFT, priority 2004, published 2008).
# System: Botrytis cinerea
# Assay: Activity against gray mold caused by Botrytis cinerea on bell pepper plants, protective application
# Type: in vivo
# Conditions: 200 ppm, protective spray, bell pepper "California Wonder", after about 3 days; untreated plants 100% infected
# Protocol: Comparative Experiment 1—Activity Against Gray Mold Caused by Botrytis cinerea, Protective Application Potted bell pepper plants of the cultivar “California Wonder” were sprayed to runoff point with an aqueous suspension having the active compound concentration stated below. The suspension or emulsion had been prepared by dilution with water from a stock solution comprising 5% of active compound, 94% of cyclohexanone and 1% of emulsifier (Tween 20). 2-5 hours after the spray coating had dried on, the plants were dusted with spores of gray mold (Botrytis cinerea). The test plants were then incubated in a humid chamber at temperatures between 20 and 22° C. and at 100% relative atmospheric humidity. After about 3 days, the extent of the pathogen development was determined visually in % infection of the entire leaf area.
smiles,measurement,value
CC(C)Nc1c(-c2ccccc2F)c(Cl)nc2ncnn12 [compound A],infection of the entire leaf area,90%
